The assay has as its system Ascaris suum antigen-induced wheal. Briefly: Ascaris suum antigen-induced intradermal wheal formation in nonhuman primates. The format is in vivo, Macaca fascicularis. The note with it: for Mean wheal area: mean of 12 animals, 15 minutes, A suum alone 119.626; for Individual calculated wheal area: single animals, intradermal, 15 minutes after injection. An excerpt:
The species used for this study were male, nonhuman primates, Macaca fascicularis 5 to 10 years of age. Each animal was identified by a unique number tattoo located on its chest. The group size was 12. Animals were supplied by Charles River and housed under conditions outlined in the NIH Guide for Care and Use of Laboratory Animals in compliance with the USDA Laboratory Animal Welfare Act, in a fully accredited AAALAC facility. Purina (product 5038) primate chow was fed twice daily, supplemented with fruit, vegetables and treats. Water was available ad libitum.
Compound A formulated in a solution containing 0.22 mg/ml A sum (Ascaris sum) in phosphate buffered saline was dosed at 0.004, 0.0004, 0.00004, and 0.000004 mg per injection site at a volume of 40 μl.
Diphenhydramine hydrochloride was formulated in a solution containing 0.22 mg/ml A suum in phosphate buffered saline. Diphenhydramine hydrochloride was dosed at 0.4 mg per injection site at a volume of 40 μl.
Ascaris suum extract (part number XPB33X1A5, lot 30575) was supplied by Greer Laboratories. The extract was reconstituted with distilled water to a final concentration of 10 mg/ml of stock solution.
Animals were anesthetized by an intramuscular (IM) injection of 5 to 10 mg/kg ketamine mixed with 0.5 to 0.75 mg/kg medetomidine. The animal's chest and abdomen were shaved and wiped clean with alcohol. The following injections (40 μl each) were given intradermally: • PBS (phosphate buffered saline) • Ascaris 8.8×10^−3 mg/ml • Ascaris 8.8×10^−3 mg/ml+0.4 mg Diphenhydramine hydrochloride • Ascaris 8.8×10^−3 mg/ml+0.004 mg SAR160719 • Ascaris 8.8×10^−3 mg/ml+0.0004 mg SAR160719 • Ascaris 8.8×10^−3 mg/ml+0.00004 mg SAR160719 • Ascaris 8.8×10^−3 mg/ml+0.000004 mg SAR160719
The reactions in the form of a wheal were measured 15 minutes after injection using vernier calipers. The wheal was measured along two diameters (D1 and D2) perpendicular to one another. The area of the wheal was calculated using the formula: […]
Mixed model with repeated measures was used to analyze the data, with wheal size for different treatment groups as the repeated measures, treatment as fixed effects, and animal as random effect. The correlation structure was selected to be compound symmetry. Robust covariance estimate was used to obtain the results.

“And” between values parts separate entries of the source, which are not always exact repeats. Equal entries are not always repeated. Structures can show the parent of a compound that is named as a salt.

Consider `COCCn1cc(C(=O)N2CCC(c3cc(CN)ccc3F)CC2)c2c(OC(F)(F)F)ccc(F)c21` [Compound A, [4-(5-Aminomethyl-2-fluorophenyl)piperidine-1-yl][7-fluoro-1-(2-methoxyethyl)-4-trifluoromethoxy-1H-indol-3-yl]methanone], for which the Antigen-induced wheal formation entry (co-injected with A suum intradermally, measured 15 minutes after injection) was “reduced antigen-induced wheal formation”. Further, the Mean wheal area by setting is: (A suum + 0.000004 mg per site) 105.510 mm^2; (A suum + 0.00004 mg per site) 101.157 mm^2; (A suum + 0.0004 mg per site) 97.680±8.012 mm^2 and 97.680 mm^2; (A suum + 0.004 mg per site) 102.390±9.645 mm^2 and 102.390 mm^2. In addition, the “Individual calculated wheal area” value runs as follows: (A suum 8.8 × 10^−3 mg + 0.000004 mg per injection site) 110.302 mm^2 and 84.145 mm^2 and 132.750 mm^2 and 121.754 mm^2 and 86.601 mm^2 and 104.788 mm^2 and 134.800 mm^2 and 133.773 mm^2 and 85.779 mm^2 and 66.485 mm^2 and 115.005 mm^2 and 89.932 mm^2; (A suum 8.8 × 10^−3 mg + 0.00004 mg per injection site) 67.209 mm^2 and 86.601 mm^2 and 168.586 mm^2 and 90.774 mm^2 (2×) and 106.610 mm^2 (2×) and 81.723 mm^2 and 107.527 mm^2 and 93.325 mm^2 and 79.337 mm^2 and 134.800 mm^2; (A suum 8.8 × 10^−3 mg + 0.0004 mg per injection site) 112.171 mm^2 and 110.302 mm^2 and 158.388 mm^2 and 101.190 mm^2 and 103.882 mm^2 and 107.527 mm^2 and 87.428 mm^2 and 90.774 mm^2 and 100.300 mm^2 and 48.404 mm^2 and 56.752 mm^2 and 95.046 mm^2; (A suum 8.8 × 10^−3 mg + 0.004 mg per injection site) 67.938 mm^2 and 115.005 mm^2 and 159.506 mm^2 and 91.621 mm^2 and 84.960 mm^2 (2×) and 131.730 mm^2 and 88.259 mm^2 and 164.014 mm^2 and 99.415 mm^2 and 65.047 mm^2 and 76.211 mm^2.

In the case of `CN(C)CCOC(c1ccccc1)c1ccccc1` [Diphenhydramine hydrochloride, reference compound], the Mean wheal area (A suum + 0.4 mg per site, hydrochloride) was 84.196±7.364 mm^2 and 84.196 mm^2. Further, the “Individual calculated wheal area” value (A suum 8.8 × 10^−3 mg + 0.4 mg per injection site, hydrochloride) is 76.211 mm^2 and 116.914 mm^2 and 147.430 mm^2 and 62.219 mm^2 and 73.148 mm^2 and 82.527 mm^2 and 58.773 mm^2 and 67.209 mm^2 and 78.550 mm^2 and 65.764 mm^2 and 87.428 mm^2 and 94.183 mm^2.

(Values after US20120309790A1, “TREATMENT OF DERM[…] CONDITIONS” (SANOFI, priority 2010, published 2012).)
